Reference: patent US6737383B1, “Herbicidal oxadiazolidines” (priority 1999, dated 2004)

Columns and labels:
[1] = tested on: wild oat; test: Test B pre/postemergence wild oat; type: in vivo, Avena fatua
How it was run: (§1)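 Test chemicals in a non-phytotoxic solvent mixture with surfactant were sprayed preemergence onto planted seeds and postemergence onto plants 2 to 18 cm tall (1- to 4-leaf stage). After twelve to sixteen days in a greenhouse, injury was visually rated against untreated controls from 0 (no effect) to 10 (complete control).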

[2] = tested on: soybean; test: Test B pre/postemergence soybean; type: in vivo, Glycine max
How it was run: as §1

[3] = tested on: crabgrass; test: Test B pre/postemergence crabgrass; type: in vivo, Digitaria sanguinalis
How it was run: as §1

[4] = tested on: corn; test: Test B pre/postemergence corn; type: in vivo, Zea mays
How it was run: as §1

[5] = tested on: pigweed; test: Test B pre/postemergence pigweed; type: in vivo, Amaranthus retroflexus
How it was run: as §1

[6] = tested on: surinam grass; test: Test B pre/postemergence surinam grass; type: in vivo, Brachiaria decumbens
How it was run: as §1

[7] = tested on: blackgrass; test: Test B pre/postemergence blackgrass; type: in vivo, Alopecurus myosuroides
How it was run: as §1

[8] = tested on: rape; test: Test B pre/postemergence rape; type: in vivo, Brassica napus
How it was run: as §1

[9] = tested on: bedstraw; test: Test B pre/postemergence bedstraw; type: in vivo, Galium aparine
How it was run: as §1

[10] = tested on: bamyardgrass; test: Test B flood test barnyardgrass; type: in vivo, Echinochloa crus-galli
How it was run: (§2)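 Each value is a visual injury score relative to controls, with 10 meaning complete control and 0 no effect. Evaluation took place twelve to sixteen days after the 2-leaf-stage plants were treated and kept in the greenhouse.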

[11] = tested on: cocklebur; test: Test B pre/postemergence cocklebur; type: in vivo, Xanthium strumarium
How it was run: as §1

[12] = tested on: sugar beet; test: Test B pre/postemergence sugar beet; type: in vivo, Beta vulgaris
How it was run: as §1

[13] = tested on: velvetleaf; test: Test B pre/postemergence velvetleaf; type: in vivo, Abutilon theophrasti
How it was run: as §1

[14] = tested on: smallflower flatsedge; test: Test B flood test smallflower flatsedge; type: in vivo, Cyperus difformis
How it was run: as §2

[15] = tested on: purple nutsedge; test: Test B pre/postemergence purple nutsedge; type: in vivo, Cyperus rotundus
How it was run: as §1

[16] = tested on: wheat; test: Test B pre/postemergence wheat; type: in vivo, Triticum aestivum
How it was run: as §1

[17] = Preemergence, Rate 62 g/ha, scale of 0 to 10 where 0 is no effect and 10 is complete control
[18] = Preemergence, Rate 250 g/ha, scale of 0 to 10 where 0 is no effect and 10 is complete control
[19] = Preemergence, Rate 500 g/ha, scale of 0 to 10 where 0 is no effect and 10 is complete control
[20] = Rate 62 g/ha, Postemergence, scale of 0 to 10 where 0 is no effect and 10 is complete control
[21] = Rate 125 g/ha, Preemergence, scale of 0 to 10 where 0 is no effect and 10 is complete control
[22] = Rate 500 g/ha, Postemergence, scale 0 to 10, 0 no effect, 10 complete control
[23] = Rate 125 g/ha, Postemergence, scale 0 to 10
[24] = Rate 62 g/ha, headed Pre-emergence (flood test species), scale 0 to 10 (0 no effect, 10 complete control)
[25] = Rate 125 g/ha, Pre-emergence, flood test species, scale 0 to 10 where 0 is no effect and 10 is complete control
[26] = Rate 250 g/ha, Pre-emergence, flood-test species, scale 0 to 10, 0 is no effect, 10 is complete control
[27] = Rate 500 g/ha, Pre-emergence, flood test species, scale 0 to 10 (0 no effect, 10 complete control)

**Q.** With `Cc1ccccc1-n1c(=O)on(C(=O)N(c2ccc(F)cc2)C(C)C2CC2)c1=O` (stereo not shown) [Compound 240] as the molecule, how does the “Wild oats plant response rating” value [1, 17] read?
**A.** 0

**Q.** And the “Wild oats plant response rating” value [1, 18]?
**A.** 0

**Q.** What about the “Plant response rating, Wild oats” value [1, 19] of the same molecule?
**A.** 0

**Q.** And the “Wild oats plant response rating” value [1, 20]?
**A.** 0

**Q.** And the “Wild oats plant response rating” value [1, 21]?
**A.** 0

**Q.** And the “Wild oats plant response rating” value [1, 22]?
**A.** 2

**Q.** What about the “Soybean plant response rating” value [2, 17] of the same molecule?
**A.** 0

**Q.** And the “Soybean plant response rating” value [2, 18]?
**A.** 0

**Q.** And the “Plant response rating, Soybean” value [2, 19]?
**A.** 0

**Q.** What about the “Soybean plant response rating” value [2, 20] of the same molecule?
**A.** 0

**Q.** And the “Soybean plant response rating” value [2, 21]?
**A.** 0

**Q.** What about the “Soybean plant response rating” value [2, 22] of the same molecule?
**A.** 3

**Q.** What about the “Crabgrass plant response rating” value [3, 17] of the same molecule?
**A.** 2

**Q.** And the “Crabgrass plant response rating” value [3, 18]?
**A.** 9

**Q.** And the “Plant response rating, Crabgrass” value [3, 19]?
**A.** 9

**Q.** And the “Crabgrass plant response rating” value [3, 20]?
**A.** 0

**Q.** What about the “Crabgrass plant response rating” value [3, 21] of the same molecule?
**A.** 4

**Q.** And the “Plant response rating (0 to 10; 0 is no effect, 10 is complete control), Crabgrass” value ([3]; Rate 250 g/ha, Postemergence)?
**A.** 2

**Q.** What about the “Crabgrass plant response rating” value [3, 22] of the same molecule?
**A.** 4

**Q.** What about the “Corn plant response rating” value [4, 17] of the same molecule?
**A.** 0

**Q.** What about the “Corn plant response rating” value [4, 18] of the same molecule?
**A.** 0

**Q.** What about the “Plant response rating, Corn” value [4, 19] of the same molecule?
**A.** 0

**Q.** What about the “Corn plant response rating” value [4, 20] of the same molecule?
**A.** 0

**Q.** What about the “Corn plant response rating” value [4, 23] of the same molecule?
**A.** 0

**Q.** And the “Corn plant response rating” value [4, 21]?
**A.** 0

**Q.** And the “Plant response rating (0 to 10; 0 is no effect, 10 is complete control), Corn” value ([4]; Rate 250 g/ha, Postemergence)?
**A.** 0

**Q.** What about the “Corn plant response rating” value [4, 22] of the same molecule?
**A.** 0

**Q.** And the “Redroot pigweed plant response rating” value [5, 17]?
**A.** 0

**Q.** And the “Redroot pigweed plant response rating” value [5, 18]?
**A.** 0

**Q.** What about the “Plant response rating, Redroot pigweed” value [5, 19] of the same molecule?
**A.** 0

**Q.** And the “Redroot pigweed plant response rating” value [5, 20]?
**A.** 0

**Q.** And the “Redroot pigweed plant response rating” value [5, 21]?
**A.** 0

**Q.** And the “Plant response rating (0 to 10; 0 is no effect, 10 is complete control), Redroot pigweed” value ([5]; Rate 250 g/ha, Postemergence)?
**A.** 2

**Q.** What about the “Redroot pigweed plant response rating” value [5, 22] of the same molecule?
**A.** 7

**Q.** And the “B. signalgrass plant response rating” value [6, 17]?
**A.** 0

**Q.** And the “B. signalgrass plant response rating” value [6, 18]?
**A.** 0

**Q.** What about the “Plant response rating, B. signalgrass” value [6, 19] of the same molecule?
**A.** 3

**Q.** And the “B. signalgrass plant response rating” value [6, 20]?
**A.** 0

**Q.** And the “B. signalgrass plant response rating” value ([6]; Rate 125 g/ha, Postemergence, scale 0 (no effect) to 10 (complete control))?
**A.** 0

**Q.** And the “B. signalgrass plant response rating” value [6, 21]?
**A.** 0

**Q.** What about the “Plant response rating (0 to 10; 0 is no effect, 10 is complete control), B. signalgrass” value ([6]; Rate 250 g/ha, Postemergence) of the same molecule?
**A.** 0

**Q.** What about the “B. signalgrass plant response rating” value [6, 22] of the same molecule?
**A.** 0

**Q.** And the “Blackgrass plant response rating” value [7, 17]?
**A.** 0

**Q.** And the “Blackgrass plant response rating” value [7, 18]?
**A.** 0

**Q.** And the “Plant response rating, Blackgrass” value [7, 19]?
**A.** 2

**Q.** And the “Blackgrass plant response rating” value [7, 20]?
**A.** 0

**Q.** What about the “Blackgrass plant response rating” value [7, 23] of the same molecule?
**A.** 0

**Q.** What about the “Blackgrass plant response rating” value [7, 21] of the same molecule?
**A.** 0

**Q.** And the “Plant response rating (0 to 10; 0 is no effect, 10 is complete control), Blackgrass” value ([7]; Rate 250 g/ha, Postemergence)?
**A.** 0

**Q.** And the “Blackgrass plant response rating” value [7, 22]?
**A.** 5

**Q.** What about the “Rape plant response rating” value [8, 17] of the same molecule?
**A.** 0

**Q.** And the “Rape plant response rating” value [8, 18]?
**A.** 0

**Q.** And the “Plant response rating, Rape” value [8, 19]?
**A.** 0

**Q.** And the “Rape plant response rating” value [8, 20]?
**A.** 0

**Q.** What about the “Rape plant response rating” value [8, 21] of the same molecule?
**A.** 0

**Q.** What about the “Plant response rating (0 to 10; 0 is no effect, 10 is complete control), Rape” value ([8]; Rate 250 g/ha, Postemergence) of the same molecule?
**A.** 0

**Q.** And the “Rape plant response rating” value [8, 22]?
**A.** 0

**Q.** What about the “Bedstraw plant response rating” value [9, 17] of the same molecule?
**A.** 0

**Q.** And the “Bedstraw plant response rating” value [9, 18]?
**A.** 0

**Q.** What about the “Plant response rating, Bedstraw” value [9, 19] of the same molecule?
**A.** 0

**Q.** What about the “Bedstraw plant response rating” value [9, 20] of the same molecule?
**A.** 0

**Q.** What about the “Bedstraw plant response rating” value [9, 23] of the same molecule?
**A.** 3

**Q.** What about the “Bedstraw plant response rating” value [9, 21] of the same molecule?
**A.** 0

**Q.** And the “Plant response rating (0 to 10; 0 is no effect, 10 is complete control), Bedstraw” value ([9]; Rate 250 g/ha, Postemergence)?
**A.** 3

**Q.** And the “Bedstraw plant response rating” value [9, 22]?
**A.** 5

**Q.** And the “Barnyardgrass plant response rating” value [10, 24]?
**A.** 0

**Q.** And the “Barnyardgrass plant response rating” value [10, 25]?
**A.** 0

**Q.** And the “Barnyardgrass plant response rating” value [10, 26]?
**A.** 0

**Q.** What about the “Barnyardgrass plant response rating” value [10, 27] of the same molecule?
**A.** 0

**Q.** What about the “Cocklebur plant response rating” value [11, 17] of the same molecule?
**A.** 0

**Q.** And the “Cocklebur plant response rating” value [11, 18]?
**A.** 0

**Q.** And the “Plant response rating, Cocklebur” value [11, 19]?
**A.** 0

**Q.** What about the “Cocklebur plant response rating” value [11, 20] of the same molecule?
**A.** 0

**Q.** What about the “Cocklebur plant response rating” value [11, 23] of the same molecule?
**A.** 1

**Q.** And the “Cocklebur plant response rating” value [11, 21]?
**A.** 0

**Q.** And the “Plant response rating (0 to 10; 0 is no effect, 10 is complete control), Cocklebur” value ([11]; Rate 250 g/ha, Postemergence)?
**A.** 1

**Q.** What about the “Cocklebur plant response rating” value [11, 22] of the same molecule?
**A.** 1

**Q.** And the “Sugarbeets plant response rating” value [12, 17]?
**A.** 0

**Q.** What about the “Sugarbeets plant response rating” value [12, 18] of the same molecule?
**A.** 0

**Q.** And the “Plant response rating, Sugarbeets” value [12, 19]?
**A.** 0

**Q.** And the “Sugarbeets plant response rating” value [12, 20]?
**A.** 0

**Q.** What about the “Sugarbeets plant response rating” value [12, 21] of the same molecule?
**A.** 0

**Q.** And the “Sugarbeets plant response rating” value [12, 22]?
**A.** 3

**Q.** What about the “Velvetleaf plant response rating” value [13, 17] of the same molecule?
**A.** 0

**Q.** What about the “Velvetleaf plant response rating” value [13, 18] of the same molecule?
**A.** 0

**Q.** What about the “Plant response rating, Velvetleaf” value [13, 19] of the same molecule?
**A.** 2

**Q.** What about the “Velvetleaf plant response rating” value [13, 20] of the same molecule?
**A.** 0

**Q.** And the “Velvetleaf plant response rating” value [13, 21]?
**A.** 0

**Q.** And the “Velvetleaf plant response rating” value [13, 22]?
**A.** 3

**Q.** And the “S. Flatsedge plant response rating” value [14, 24]?
**A.** 0

**Q.** And the “S. Flatsedge plant response rating” value [14, 25]?
**A.** 0

**Q.** What about the “S. Flatsedge plant response rating” value [14, 26] of the same molecule?
**A.** 0

**Q.** What about the “S. Flatsedge plant response rating” value [14, 27] of the same molecule?
**A.** 0

**Q.** And the “Nutsedge plant response rating” value [15, 18]?
**A.** 0

**Q.** What about the “Nutsedge plant response rating” value [15, 20] of the same molecule?
**A.** 0

**Q.** What about the “Plant response rating (0 to 10; 0 is no effect, 10 is complete control), Nutsedge” value ([15]; Rate 250 g/ha, Postemergence) of the same molecule?
**A.** 0

**Q.** What about the “Nutsedge plant response rating” value [15, 22] of the same molecule?
**A.** 0

**Q.** What about the “Wheat plant response rating” value [16, 17] of the same molecule?
**A.** 0

**Q.** What about the “Wheat plant response rating” value [16, 18] of the same molecule?
**A.** 0

**Q.** What about the “Plant response rating, Wheat” value [16, 19] of the same molecule?
**A.** 0

**Q.** What about the “Wheat plant response rating” value [16, 20] of the same molecule?
**A.** 0

**Q.** And the “Wheat plant response rating” value [16, 21]?
**A.** 0

**Q.** And the “Wheat plant response rating” value [16, 22]?
**A.** 2
